Usually IC50 stands for the point on the concentration scale where inhibition reaches its midpoint.

Our source for the IC50 values is patent publication US10278942B2 (PELOTON THERAPEUTICS, INC., priority 2015, dated 2019).

In one test the target is T1, HIF-2α HIS TAG-PASB Domain (Homo sapiens, UniProt Q99814).
T1 construct: 100 nM HIF-2α HIS TAG-PASB Domain
T1 sequence (Q99814 240-350 limits assumed): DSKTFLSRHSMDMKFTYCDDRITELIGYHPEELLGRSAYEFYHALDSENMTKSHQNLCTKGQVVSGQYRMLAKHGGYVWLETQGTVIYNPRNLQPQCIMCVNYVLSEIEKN
Nature of the test: HIF-2α Scintillation Proximity Assay (SPA). It counts as binding. The note with it: Scintillation Proximity Assay IC50 (nM). The gist of the method:
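IC50 values rest on percent inhibition, where the sample signal is scaled between high and low controls. Wells contain about 100 μL: compound dispensed as 2 μL of DMSO solution, 88 μL protein-probe mix and 10 μL of beads.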
With `O=S(=O)(c1ccc(Oc2cc(F)cc(Cl)c2)c(Br)c1)C(F)(F)F` [Compound 116], the IC50 was in the range of 50 to 249 nM.
Same read-out and setting: in the case of `O=S1(=O)c2ccc(Oc3cc(F)cc(Cl)c3)cc2C(O)C1(F)F` (stereo not drawn) [Compound 362] it was greater than 1000 nM; in that of `O=Cc1cc(S(=O)(=O)C(F)(F)F)ccc1Oc1cc(F)cc(Cl)c1` [Compound 123], less than 50 nM.
Same read-out and setting: in the case of `O=S(=O)(c1ccc(Oc2cc(F)cc(Cl)c2)c(CO)c1)C(F)(F)F` [Compound 122] it was greater than 1000 nM; in that of `O=S1(=O)c2ccc(Oc3cncc(Cl)c3)c(C(F)F)c2C(O)C1(F)F` (stereo not drawn) [Compound 381], 50 to 249 nM.
Same read-out and setting: in the case of `CS(=O)(=O)c1ccc(Oc2cc(F)cc(C#N)c2)c2c1C(O)C(F)(F)CC2` (stereo not drawn) [Compound 181] it was greater than 1000 nM.

The test is the same for the next values; noted with them: read-out: Scintillation Proximity Assay IC50.
Turning to `O=S(=O)(c1ccc(N2CCOCC2)c2c1[C@H](O)C(F)(F)C2)C(F)(F)F` [Compound 490, (S)-2,2-difluoro-4-morpholino-7-((trifluoromethyl)sulfonyl)-2,3-dihydro-1H-inden-1-ol], the IC50 is greater than 1000 nM.
Still for that read-out and setting: in the case of `CS(=O)(=O)c1ccc(Oc2cncc(C#N)c2)c2c1[C@H](O)[C@H](F)[C@@H]2F` [Compound 333] it was 50 to 249 nM.
For `Cc1c(Oc2cc(F)cc(C#N)c2)ccc(S(=O)(=O)C(F)(F)F)c1Br` [Compound 141], the IC50 is 50 to 249 nM.
On the same count and under the same terms, in the case of `CC1(C)C[C@@H](O)C[C@H](c2ccc(S(=O)(=O)C(F)(F)F)c3c2CC(F)(F)[C@H]3O)C1` [Compound 552] it was greater than 1000 nM; in that of `O=S(=O)(c1ccc(OC2CCNCC2)c2c1C(O)CC2)C(F)(F)F` (stereo not drawn) [Compound 606], greater than 1000 nM.
On the same count and under the same terms, in the case of `O=S(=O)(c1ccc(Oc2cc(F)cc(Cl)c2)c(Cl)c1Cn1ccnc1)C(F)F` [Compound 45] it was greater than 1000 nM; in that of `CS(=O)(=O)c1ccc(Oc2cc(F)cc(Cl)c2)c(C#N)c1` [Compound 139], greater than 1000 nM; in that of `CC1(O)c2c(ccc(Oc3cc(F)cc(C#N)c3)c2C(F)F)S(=O)(=O)C1(F)F` (stereo not drawn) [Compound 442], 50 to 249 nM.
As to `CS(=O)(=O)N1CCCC(Oc2ccc(S(=O)(=O)C(F)(F)F)c3c2CC(F)(F)C3O)C1` (stereo not drawn) [Compound 628], the IC50 was greater than 1000 nM.
The same measure, in the same setting: in the case of `O=S1(=O)CC(O)c2c1ccc(Oc1cc(F)cc(F)c1)c2Br` (stereo not drawn) [Compound 418] it was greater than 1000 nM; in that of `O/N=C1\CCc2c(OCC(F)F)ccc(C(F)(F)F)c21` [Compound 698], greater than 1000 nM; in that of `N#Cc1cc(F)cc(Oc2ccc(S(=O)(=O)C(F)(F)F)c(Cl)c2C#N)c1` [Compound 29], less than 50 nM.
The same measure, in the same setting: in the case of `Cc1n[nH]c(C)c1-c1ccc(S(=O)(=O)C(F)(F)F)c2c1CC(F)(F)[C@H]2O` [Compound 562] it was greater than 1000 nM; in that of `CC1(C)CC[C@H](O)[C@H](c2ccc(S(=O)(=O)C(F)(F)F)c3c2CC(F)(F)[C@H]3O)C1` [Compound 548], greater than 1000 nM; in that of `C[C@]1(F)Cc2c(Oc3cc(F)cc(C#N)c3)ccc(S(C)(=O)=O)c2[C@@H]1O` [Compound 298], greater than 1000 nM.
Same read-out and setting: in the case of `CS(=O)(=O)c1ccc(Oc2cncc(F)c2)c2c1[C@H](O)C(F)(F)[C@H]2F` [Compound 330] it was greater than 1000 nM; in that of `O=S(=O)(c1ccc(OCC2CC2)c2c1C(O)CC2)C(F)(F)F` (stereo not drawn) [Compound 597], greater than 1000 nM; in that of `N#Cc1cc(F)cc(Oc2ccc(Br)c3c2C(F)(F)C(F)(F)C3)c1` [Compound 248], greater than 1000 nM.
Turning to `N#Cc1cc(F)cc(Oc2ccc(S(=O)(=O)C(F)(F)F)c3c2CC(F)C3N)c1` (stereo not drawn) [Compound 265], the IC50 lay within 50 to 249 nM.
Still for that read-out and setting: in the case of `CNC(=O)COc1ccc(S(=O)(=O)C(F)(F)F)c2c1CC(F)(F)C2O` (stereo not drawn) [Compound 638] it was greater than 1000 nM; in that of `NCC1(O)CCc2c(OCC(F)F)ccc(C(F)(F)F)c21` (stereo not drawn) [Compound 705], greater than 1000 nM.
Same read-out and setting: in the case of `COCCCOc1ccc(S(=O)(=O)C(F)(F)F)c2c1CCC2O` (stereo not drawn) [Compound 600] it was greater than 1000 nM; in that of `N#Cc1cc(F)cc(Oc2ccc3c(c2C(F)F)C(N)C(F)(F)S3(=O)=O)c1` (stereo not drawn) [Compound 387], 50 to 249 nM.
Consider `N=S(=O)(c1ccc(Oc2cc(F)cc(Cl)c2)c(Br)c1)C(F)F` (stereo not drawn) [Compound 69], for which the half-maximal inhibitory concentration (IC50) is greater than 1000 nM.
For the molecule `N#Cc1cc(Oc2ccc(S(=O)(=O)C(F)(F)F)c3c2CCC3O)ccc1F` (stereo not drawn) [Compound 216], the IC50 was greater than 1000 nM.
On the same count and under the same terms, in the case of `CS(=O)(=O)c1ccc(Nc2cc(F)cc(C#N)c2)c2c1C(O)CC2` (stereo not drawn) [Compound 498] it was greater than 1000 nM; in that of `CS(=O)(=O)N1CC(Oc2ccc(S(=O)(=O)C(F)(F)F)c3c2CC(F)(F)[C@H]3O)C1` [Compound 793], greater than 1000 nM.
Still for that read-out and setting: in the case of `CN(Cc1cccs1)c1ccc(S(=O)(=O)C(F)F)c2c1CC(F)(F)[C@H]2O` [Compound 530] it was greater than 1000 nM; in that of `N#Cc1c(Oc2cc(F)cc(F)c2)ccc2c1C(O)(C(F)(F)F)CS2(=O)=O` (stereo not drawn) [Compound 448], greater than 1000 nM; in that of `O=S(=O)(c1ccc(CO)c2c1[C@H](O)C(F)(F)C2)C(F)(F)F` [Compound 537], greater than 1000 nM.
The same measure, in the same setting: in the case of `CC1(O)c2cc(Oc3cc(F)cc(F)c3)ccc2S(=O)(=O)C1(F)F` (stereo not drawn) [Compound 425] it was greater than 1000 nM; in that of `Cc1cc(Oc2ccc(S(=O)(=O)C(F)F)c3c2CC(F)(F)C3=O)ccc1F` [Compound 197], 250 to 1000 nM.
With `Cc1c(Oc2cc(F)cc(C#N)c2)ccc(S(=O)(=O)C(F)(F)F)c1C#CCO` [Compound 142], the IC50 was greater than 1000 nM.
The same measure, in the same setting: in the case of `CS(=O)(=O)c1ccc(O[C@H]2C[C@H](O)C2)c2c1[C@H](O)C(F)(F)[C@@H]2F` [Compound 738] it was greater than 1000 nM; in that of `CS(=O)(=O)c1ccc(Oc2cncc(Br)c2)c2c1[C@H](O)[C@H](F)C2` [Compound 326], greater than 1000 nM.
Still for that read-out and setting: in the case of `OC1c2c(Br)ccc(OC(F)(F)F)c2CC1(F)F` (stereo not drawn) [Compound 653] it was greater than 1000 nM; in that of `CS(=O)(=O)c1ccc(Nc2ccc(F)cc2)c2c1C(O)CC2` (stereo not drawn) [Compound 497], greater than 1000 nM; in that of `O=S(=O)(c1ccc(Nc2cncc(Cl)c2)c2c1C(O)CC2)C(F)(F)F` (stereo not drawn) [Compound 503], greater than 1000 nM.
Still for that read-out and setting: in the case of `OC1c2cccc(OCC(F)F)c2CC1(F)F` (stereo not drawn) [Compound 651] it was greater than 1000 nM.
Turning to `N#Cc1c(Oc2cc(F)cc(Cl)c2)ccc(S(=O)(=O)C(F)(F)F)c1Cl` [Compound 28], the IC50 is greater than 1000 nM.
Same read-out and setting: in the case of `O=C1c2c(ccc(Oc3cc(F)cc(Cl)c3)c2Br)S(=O)(=O)C12CC2` [Compound 404] it was greater than 1000 nM.
On to `CO[C@H]1c2c(S(C)(=O)=O)ccc(Oc3cc(F)cc(C#N)c3)c2CC1(F)F` [Compound 210], for which the IC50 is greater than 1000 nM.
`N#Cc1cc(F)cc(Oc2ccc(S(=N)(=O)C(F)(F)F)c3c2CCC3O)c1` (stereo not drawn) [Compound 259]: the IC50 is greater than 1000 nM.
On the same count and under the same terms, in the case of `O=S(=O)(c1ccc(Oc2cc(Cl)ccc2F)c(Br)c1)C(F)(F)F` [Compound 170] it was greater than 1000 nM.
In the case of `NC(=O)Cc1ccc(S(=O)(=O)C(F)(F)F)c2c1CC(F)(F)[C@H]2O` [Compound 527], the IC50 was greater than 1000 nM.
The same measure, in the same setting: in the case of `OC1c2c(I)cc(I)c(OCC(F)F)c2CC1F` (stereo not drawn) [Compound 667] it was greater than 1000 nM; in that of `CN=S(=O)(c1ccc(Oc2cc(F)cc(Cl)c2)c(Br)c1)C(F)F` (stereo not drawn) [Compound 70], 250 to 1000 nM.
Same read-out and setting: in the case of `C=CS(=O)(=O)c1ccc(Oc2cc(F)cc(Cl)c2)c(Br)c1` [Compound 130] it was greater than 1000 nM.
